Experimental data published in patent publication US7304057B2, “Substituted 6-membered N-heterocyclic compounds and method for their use as neurological regulator” (Institute of Pharmacology and Toxicology Accademy of …, priority 2001, dated 2007).

Legend:
[1] = tested on: chick embryos dorsal root ganglia; experiment: chick embryo dorsal root ganglion cultures free of serum, neurite process scoring; assay type: cell-based; settings: 48 h; for Average scoring: score 0-3 of neurite processes, average of 20 ganglia, NGF-only control 1.0
Protocol: The neurotrophic activity of compounds of the present invention can be determined through several biological models in vitro, e.g. the model of chick embryos dorsal root ganglion cultures free of serum in vitro.
In a sterile environment, dorsal root ganglia were dissected from chick embryos of 8 days gestation and inoculated in rat rail collagen coated culture bottles (5 to 6 dorsal root ganglia per bottle, and two bottles per dosage). After 1 hour of attachment in a 37° C., 5% CO2 incubator, NGF (0.30 ng/ml) containing culture medium free of serum (DMEM) and the compound of example 4 of the present invention were added. The control groups were treated only with the same amount of NGF and culture medium. […] The representative micrographic pictures showing that compound of example 4 promotes the growth of chick embryos dorsal root ganglia processes were give in FIG. 1. The results of illustrative compound of example 4 at different concentrations promoting the growth of chick embryos dorsal root ganglia processes were outlined in table 1, wherein the scoring is the average scoring of 20 ganglia.

[2] = tested on: mice sympathetic nerve endings damaged by 6-hydroxy-dopamine (6-OHDA); experiment: adult mice sympathetic nerve endings damaged by 6-OHDA, residual noradrenaline in submaxillary glands; assay type: in vivo; settings: 5 mg/kg sc, 6-OHDA 8 mg/kg ip, Kunming female mice; FIG. 3, **P<0.01 vs model control group
Protocol: The neurotrophic activity of the compounds of the present invention can also be determined in several animal pharmacological models in vivo, such as the model of adult mice sympathetic nerve endings damaged by 6-hydroxy-dopamine (6-OHDA).
Kunming species female mice (♀) having a body weight of 18-22 g are randomly divided into the following groups: normal control group, model control group, FK506 (2 mg/kg) group, and the group of compound of the present invention (5 mg/kg) (10 mice per group). The mice are administrated with 6-OHDA (8 mg/kg) by intraperitoneal injection (ip) before 4 hours and after 4 continuous days of subcutaneous injection (sc) of the compound, while the control groups are administrated with the equivalent quantity of carrier by subcutaneous injection. After two weeks of the last administration, the mice are killed by luxation, and the two submaxillary glands of each of the mice are rapidly excised and weighed, placed in a glass grinder, then is homogenated with a homogenating liquid containing internal-standard, and centrifuged at 2000 g for 30 minutes. 20 μL of the obtained supernatant is directly injected in an HPLC-electrochemical detector to measure the content of noradrenaline (NE) in the submaxillary glands of the mice.

CCOC(=O)C(CC(C)C)NC(=O)[C@@H]1CSCCN1S(=O)(=O)c1ccc(C)cc1 (stereo partly drawn) [Example 4, 2-{[(3R)-4-(4-toluenesulfonyl)thiomorpholine-3-carbonyl]amino}-4-methyl-pentanoic acid ethyl ester]
Average scoring ([1]; 0.1 pM compound + NGF (0.3 ng/mL)): 2.15
Average scoring ([1]; 1.0 pM compound + NGF (0.3 ng/mL)): 2.16
Average scoring ([1]; 10 pM compound + NGF (0.30 ng/mL)): 1.50
growth of chick embryos dorsal root ganglia processes ([1]; concentration of from 0.1 to 1.0 pmol/L, with NGF (0.30 ng/ml)): promote the growth of chick embryos dorsal root ganglia processes
residual NE level in the submaxillary glands [2]: raise the residual NE level in the submaxillary glands of the mice
